Measured values from US20080261891A1, “COMPOSITIONS AND METHODS FOR USING SYRINGOPEPTIN 25A AND RHAMNOLIPIDS” (Utah State University, priority 2007, published 2008).
“Also recorded” adds a separate entry of the source. Where a SMILES comes first, the peptide text is derived from it. Bridges are numbered along the chain shown (N, C = ends). [ ]: non-standard residue; d: D form. The star is where a group is joined. ξ: configuration not given here. Decanoyl(3ξ-OH) = CCCCCCCC(O)CC(=O)*; Dab = NCC[CH](N)C(=O)O; Dhb = C/C=C(\N)C(=O)O

Legend:
Type in all cases: cell-based
Salmonella enteridis = test: Inhibition rate (IR), propidium iodide uptake
Procedure: (§1) The antimicrobial action for each compound was initially determined by the rate of uptake of propidium iodide (Fluoropure grade, Molecular Probes, Inc., Eugene, Oreg.) as previously described (Haughland, R. P., 2002, Handbook of fluorescent probes and research chemicals, 9th ed. Molecular Probes, Inc., Eugene, Oreg.). Briefly, all cultures were grown overnight in their respective optimal growth medium and temperature from freezer vials (Table 1). Each culture was sub-cultured twice, harvested in mid-log phase, washed with saline, and adjusted to an appropriate concentration by measuring the optical density at 600 nm. PI, with an excitation wavelength of 535 and an emission wavelength of 617, was added to the culture suspension at a final concentration of 10 μM. Each organism was treated with 50 μg/mL SP 25A and 60 μg/mL of the RL mixture in a final volume of 2.2 mL. The increase in fluorescence was measured with a Shimadzu RF 1501 spectrophotofluorometer at 15 s intervals for a maximum period of 120 min. Saline was added in place of SP 25A or RLs as a negative control. All inhibition experiments were done in replicate.
(§2) The rate of antimicrobial action was expressed as the inhibition rate (“IR”). Curve fitting was done using OriginPro version 7.0 (Natick, Mass.). IR=((Log RFU/(Time))−C)/Time (when d Log RFU/dT>0). Where RFU=relative fluorescent units; and C=Y intercept.

Listeria monocytogenes = test: Inhibition rate (IR), propidium iodide uptake
Procedure: as §1, §2

[1] = tested on: Staphylococcus aureus subsp. aureus; test: Inhibition rate (IR), propidium iodide uptake
Procedure: as §1, §2

Bacillus subtilis = test: Inhibition rate (IR), propidium iodide uptake
Procedure: as §1, §2

Erwinia herbicola = test: Inhibition rate (IR), propidium iodide uptake
Procedure: as §1, §2

Listeria innocua = test: Inhibition rate (IR), propidium iodide uptake
Procedure: as §1, §2

Eschereschia coli K12 = test: Inhibition rate (IR), propidium iodide uptake
Procedure: as §1, §2

Clostridium sporogenes = test: Inhibition rate (IR), propidium iodide uptake
Procedure: as §1, §2

Micrococcus luteus = test: Inhibition rate (IR), propidium iodide uptake
Procedure: as §1, §2

Lactobacillus plantarum = test: Inhibition rate (IR), propidium iodide uptake
Procedure: as §1, §2

Streptococcus mutans = test: Inhibition rate (IR), propidium iodide uptake
Procedure: as §1, §2

Aeromonas caviae = test: Inhibition rate (IR), propidium iodide uptake
Procedure: as §1, §2

[2] = tested on: Eschereschia coli H7:0157; test: Inhibition rate (IR), propidium iodide uptake
Procedure: as §1, §2

[3] = tested on: Lactobacillus acidophilus; test: Inhibition rate (IR), propidium iodide uptake
Procedure: as §1, §2

Salmonella typhimurium = test: Inhibition rate (IR), propidium iodide uptake
Procedure: as §1, §2

[4] = tested on: Staphylococcus aureus subsp. aureus; conditions: Staphylococcus aureus subsp. aureus (multiple drug resistant); 48 h
Procedure: (§3) In order to determine the antimicrobial efficacy of RLs and SPs they were tested against several bacterial strains, some with multiple drug resistance. The multiple drug resistant bacterial strains used were E. faecalis and S. aureus. […] A combination of RLs and SPs were tested against L. monocytogenes.
(§4) The MIC of the compounds for the organisms was determined by the microbroth dilution method, described hereafter. The microorganisms were prepared as described above and resuspended in their optimal growth media (Table 1) to ˜10^5 CFU/mL containing SP 25A at 2, 3, 4, 5, 6, 7, 8, 16, 32 and 50 μg/mL in a total volume of 550 μL. RL concentrations of 2, 3, 4, 5, 6, 7, 8, 16, 32 and 60 μg/mL in a total volume of 550 μL were tested in a 48-well plate (Corning, N.Y.). The plates were incubated at optimal growth conditions for the respective organism and monitored for an increase in OD600 after 48 h by a Perkin-Elmer (HTS 7000) plate reader (Downers Grove, Ill.). […] Negative controls (no inhibition of growth) were included using saline in the assay for each compound. The lowest concentration at which there was no increase in OD over 48 h was reported as the MIC. Each MIC was determined in replicate with three separate tests per replication. The results of the three tests were averaged for each replicate.

Enterococcus faecalis = Enterococcus faecalis (multiple drug resistant); 48 h
Procedure: as §3, §4

[5] = tested on: Listeria monocytogenes EGDe; test: Cell growth (cell density, OD600) during treatment over 120 min
Procedure: FIG. 6B includes a graph that illustrates the amount of cell growth in response to being treated with SP 25A, RLs and saline (control) over a period of 120 min. […] The lack of positive correlation between membrane permeabilization (FIG. 6A) and inhibition of cell growth (FIG. 6B) of SP 25A inferred that the pore forming model alone was not be responsible for all of the antimicrobial properties of SP 25A.
Listeria monocytogenes EGDe was thawed and subcultured twice at 37° C. in brain heart infusion broth (BHI) (DIFCO, Franklin Lanes, N.J.). An overnight culture was diluted 10 fold in sterile medium and grown for 4 h to an OD600 of 1.7, which corresponded to ˜10^9 cfu/mL. The cell preparation was exposed to either 3 μg/mL SP 25A or 6 μg/mL RLs. Treatment with both RLs and SP 25A caused membrane permeabilization (FIG. 6A), but each reduced cell growth (FIG. 6B) of L. monocytogenes by different amounts. […]
Total RNA was extracted from a 1.8 mL culture immediately before treating the cells with SP 25A and RLs (T0), after 30 min (T30), and at 120 min (T120) of exposure at 37° C. Simultaneously, the cell density was measured at OD600. Membrane permeabilization was determined by measuring the PI uptake. […] Each well contained five probes for each open reading frame in the entire genome.

C/C=C(\NC(=O)C(C)NC(=O)C(C)NC(=O)C(CC(C)C)NC(=O)C(NC(=O)C(C)NC(=O)C(C)NC(=O)C(NC(=O)C1CCCN1C(=O)/C(=C/C)NC(=O)CC(O)CCCCCCC)C(C)C)C(C)C)C(=O)NC(C(=O)N/C(=C\C)C(=O)NC(C)C(=O)NC(C(=O)NC(C)C(=O)NC(C)C(=O)N/C(=C\C)C(=O)NC1C(=O)NC(CO)C(=O)NC(C)C(=O)NC(C(C)C)C(=O)NC(C)C(=O)NC(CCN)C(=O)NC(CCN)C(=O)NC(Cc2ccc(O)cc2)C(=O)OC1C)C(C)C)C(C)C (centres unmarked) [SP 25A, syringopeptin 25A] ({Decanoyl(3ξ-OH)}-[Dhb]PVAAVLAA[Dhb]V[Dhb]AVAA[Dhb]TSAVA[Dab][Dab]Y; ester 18-C; configuration not given here)
IR SP 25A (50 μg/mL) (Salmonella enteridis): 0.000
inhibition rate relative to the inhibition rate for RLs (Listeria monocytogenes; L. monocytogenes, each compound tested by itself): approximately one-sixth
IR SP 25A (50 μg/mL) (Listeria monocytogenes; Listeria monocytogenes, 50 μg/mL): 0.005
IR SP 25A (50 μg/mL) [1]: 0.003
IR SP 25A (50 μg/mL) (Bacillus subtilis): 0.006
IR SP 25A (50 μg/mL) (Erwinia herbicola): 0.000
IR SP 25A (50 μg/mL) (Listeria innocua): 0.005
IR SP 25A (50 μg/mL) (Eschereschia coli K12): 0.000
IR SP 25A (50 μg/mL) (Clostridium sporogenes): 0.008
IR SP 25A (50 μg/mL) (Micrococcus luteus): 0.006
IR SP 25A (50 μg/mL) (Lactobacillus plantarum): 0.003
IR SP 25A (50 μg/mL) (Streptococcus mutans): 0.003
IR SP 25A (50 μg/mL) (Aeromonas caviae): 0.000
IR SP 25A (50 μg/mL) [2]: 0.000
IR SP 25A (50 μg/mL) [3]: 0.003
IR SP 25A (50 μg/mL) (Salmonella typhimurium): 0.000
MIC [4]: 8 µg/mL
MIC (Enterococcus faecalis): 8 µg/mL
growth of culture (cell density) ([5]; 3 μg/mL SP 25A, during 120 min, control culture grew by 15.3%): did not grow
inhibition of cell growth ([5]; in comparison to the saline control, 120 min): completely inhibited cell growth; also recorded: complete inhibition of cell growth
